Reference: patent US4590061A, “Antimicrobial plaque disclosing agent” (priority 1985, dated 1986)
Like-named read-outs stand apart in the source and are kept apart here.

Tests used:
[1] = Approximate retention times in oral tissues
From the text: The approximate retention times in oral tissues of six alkaloids found in extracts from Sanguinaria canadensis is shown in Table IV.

[2] = Visual plaque disclosure scoring in healthy volunteers (Table I); type: in vivo; conditions: for Mean Plaque Area Score, 1 Hour later / Mean Plaque Area Score, Baseline: visual assessment
Procedure: Sanguinarine chloride was compared to two standard disclosing dyes, erythrosine and sodium fluorescein. At weekly interval healthy volunteers underwent a 12-24 hour, no oral hygiene period. Subjects then used one of the following: erythrosine, sodium flourescein, or sanguinarine chloride. Subjects rinsed two times with 15 ml. of the rinse, while the erythrosine and sodium fluorescein were used according to customary practice. Color was evaluated under ambient light after erythrosine, under ambient light for sodium fluorescein, and under longwave UV fluorescent light for sanguinarine. The color was scored for location, amount, and area.
All of the disclosing agents colored soft dental deposits at gingival margins and at the dorsal surface of the tongue. […] Mean values of plaque were measured for all disclosants.
(§1) This was the oral rinse used for the tests described in Tables I, II, and III.

[3] = type: in vivo
From the text: This would indicate that the retention of sanguinarine in plaque may be responsible for its clinical effectiveness in plaque assays, and that plaque may serve as a reservoir for sanguinarine.
as §1

[4] = In vivo plaque retention of sanguinarine (HPLC)
From the text: as §1

variety of microorganism = assay: Antimicrobial properties (general statement); type: cell-based
[5] = system: human dental plaque forming microorganisms; assay: Reduction of dental plaque / inactivation of plaque forming microorganisms in vitro; type: cell-based
[6] = alkaloids found in extracts from Sanguinaria canadensis
[7] = human, in vivo, po, In Vivo Plaque Retention of Sanguinarine

| SMILES | Approximate Retention time (in oral tissues) [1, 6] | Mean Plaque Area Score, 1 Hour later [2] | Mean Plaque Area Score, Baseline [2] | also measured |
| --- | --- | --- | --- | --- |
| COc1cc2ccc3c4c(OC)cc(OC)c(OC)c4c[n+](C)c3c2cc1OC [Sanguilutine] | 18.5 to 19.0 min |  |  |  |
| O=C1OC2(c3ccc(O)cc3Oc3cc(O)ccc32)c2ccccc21 [Sodium Fluorescein, reference compound] |  | 1.74 ± 0.45 | 2.84 ± 0.22 |  |
| O=C1OC2(c3ccccc31)c1cc(I)c(O)c(I)c1Oc1c2cc(I)c(O)c1I [Erythrosine, reference compound] |  | 2.18 ± 0.5 | 2.86 ± 0.43 |  |
| COc1cc(OC)c2c(c[n+](C)c3c4cc5c(cc4ccc23)OCO5)c1OC [Chelilutine] | 15.5 to 16.0 min |  |  |  |
| COc1ccc2c(c[n+](C)c3c4cc5c(cc4ccc23)OCO5)c1OC [Chelerythrine] |  |  |  | Approximate Retention time (in oral tissues) [1]: 16.5 to 17.0 min |
| COc1cc2ccc3c4c(OC)cc5c(c4c[n+](C)c3c2cc1OC)OCO5 [Sanguirubine] | 12.5 to 13.0 min |  |  |  |
| C[n+]1cc2c3c(ccc2c2ccc4cc5c(cc4c21)OCO5)OCO3 [Sanguinarine] | 9.5 to 10.0 min |  |  | levels in saliva relative to anti-glycolytic effect [3]: high enough to exert an anti-glycolytic effect on saliva; level in plaque versus in vitro minimum inhibitory concentrations ([4]; HPLC, plaque): much higher in vitro minimum inhibitory concentrations; In Vivo Plaque Retention of Sanguinarine ([4]; human, in vivo, po, 1 h): 46 ug/g of wet plaque; concentration at 1 h [4, 7]: 56000 ng/g; concentration at 2 h [4, 7]: 27000 ng/g |
| COc1cc2c(c3c[n+](C)c4c5cc6c(cc5ccc4c13)OCO6)OCO2 [Chelirubine] | ~7.5 min |  |  |  |
| C[n+]1cc2c3c(ccc2c2ccc4cc5c(cc4c21)OCO5)OCO3 [Sanguinarine chloride] |  | 2.86 ± 0.26 | 2.87 ± 0.23 | plaque disclosure ([2]; sanguinarine chloride mouthwash): disclosed plaque effectively; duration of disclosure ([2]; versus erythrosine and sodium fluorescein): lasted significantly longer than for the other two disclosing dyes; antimicrobial properties (variety of microorganism): strong antimicrobial properties; killing at 25 µg/mL ([5]; Homo sapiens, 25 micrograms per milliliter, read-out: reduction of dental plaque by inactivating plaque forming microorganisms): 100%; comparison with chlorhexidine in inhibition of human dental plaque forming microorganisms ([5]; in vitro, versus chlorhexidine (Hibitane)): compated favorably in vitro with chlorhexidine |
